Measured values taken from patent publication US20140212800A1, “ELECTROPHOTOGRAPHIC PHOTOSENSITIVE MEMBER, PROCESS CARTRIDGE AND ELECTROPHOTOGRAPHIC APPARATUS” (CANON KABUSHIKI KAISHA, priority 2013, published 2014).

Assay: Solubility of the charge transporting substance in 100 g of first / second solvent
Format: physicochemical
Conditions: 23° C., 1 atmosphere; for Solubility Y1: in 100 g of toluene (first solvent)
Experimental: The charge transporting layer satisfying the expressions (4-1) to (4-5) is formed by drying a coat of a charge-transporting-layer coating liquid containing the charge transporting substance, the binder resin, and the following first solvent and second solvent. Additionally, when the solubility of the charge transporting substance in 100 g of the first solvent in an environment at 23° C. under 1 atmosphere is designated as Y1(g), and the solubility of the charge transporting substance in 100 g of the second solvent in an environment at 23° C. under 1 atmosphere is designated as Y2(g), solubility Y1 and solubility Y2 satisfy the following expression (6).
Each of electrophotographic photosensitive members was produced in the same manner as in Example 1 except that the charge transporting substance represented by the formula (CTM-2), polyester resin A having the structural unit represented by the formula (1-18) and o-xylene in Example 1 were changed as shown in Table 1.

SMILES | Solubility Y1 | Solubility Y2 (in 100 g of acetophenone (second solvent)) | Solubility Y2 (in 100 g of methyl benzoate (second solvent))
Cc1ccc(N(C=C(c2ccccc2)c2ccccc2)c2ccc(-c3ccc(N(C=C(c4ccccc4)c4ccccc4)c4ccc(C)cc4C)cc3)cc2)c(C)c1 [CTM-3] | 25 g |  | 
C(/C=C/c1cccc(N(c2ccccc2)c2ccc(-c3ccc(N(c4ccccc4)c4cccc(/C=C/C=C/c5ccccc5)c4)cc3)cc2)c1)=C\c1ccccc1 [CTM-2] | 20 g | 8 g | 8 g
